The test deals with BDF1 mice, P388 leukemia ip, median survival T/C. Kind of test: NCI In Vivo Anticancer Drug Screen. Data for tumor model P388 Leukemia (intraperitoneal) in B6D2F1 (BDF1) mice. Conditions: endpoint: median survival time, higher = longer survival. In outline:
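Mice carrying the transplantable tumour receive compound or vehicle. Survival is followed in each arm, and the treated measure is divided by the vehicle measure.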

[1] abbreviates: dose: 100.0 mg/kg/injection, schedule: Q01DX009 (ip), vehicle: saline with Tween-80.
Setting [2] is: dose: 100.0 mg/kg/injection, schedule: Q04DX003 (ip), vehicle: saline with Tween-80.
The mark [3] stands for this setting: dose: 200.0 mg/kg/injection, schedule: Q01DX009 (ip), vehicle: saline with Tween-80.
The mark [4] stands for this setting: dose: 200.0 mg/kg/injection, schedule: Q04DX003 (ip), vehicle: saline with Tween-80.
The mark [5] stands for this setting: dose: 400.0 mg/kg/injection, schedule: Q04DX003 (ip), vehicle: saline with Tween-80.
Where [6] appears, read: dose: 50.0 mg/kg/injection, schedule: Q01DX009 (ip), vehicle: saline.
The mark [7] stands for this setting: dose: 100.0 mg/kg/injection, schedule: Q01DX009 (ip), vehicle: saline.
Where [8] appears, read: dose: 50.0 mg/kg/injection, schedule: Q01DX009 (ip), vehicle: saline with Tween-80.
Where [9] appears, read: dose: 100.0 mg/kg/injection, schedule: Q01DX009 (ip), vehicle: Klucel (hydroxypropylcellulose) (HPC).
Where [10] appears, read: dose: 100.0 mg/kg/injection, schedule: Q04DX003 (ip), vehicle: Klucel (hydroxypropylcellulose) (HPC).
Setting [11] is: dose: 200.0 mg/kg/injection, schedule: Q04DX003 (ip), vehicle: saline.
Where [12] appears, read: dose: 25.0 mg/kg/injection, schedule: Q01DX009 (ip), vehicle: saline with Tween-80.
The mark [13] stands for this setting: dose: 12.5 mg/kg/injection, schedule: Q01DX009 (ip), vehicle: saline with Tween-80.

Several values for one entry are separate records, joined by “and”; a condition that tells them apart may be missing. Identical values can stand only once. Inconclusive results and toxic doses are left out. Residues, ends and D or L forms follow the SMILES beside them. *: point of attachment. For = O=C*

Take `COC(=O)C(CC(C)C)NC(=O)C(Cc1ccc(O)cc1)NC=O` (stereo not drawn) (For-Tyr-Leu-OMe; configuration not given here): the T/C runs as follows: under setting [1], 99 % of control; under setting [2], 105 % of control; under setting [3], 115 % of control; under setting [4], 110 % of control; (dose: 400.0 mg/kg/injection, schedule: Q01DX009 (ip), vehicle: saline with Tween-80) 106 % of control; under setting [5], 112 % of control.
For `CC(/C=C/c1ccccc1)=N\NC(=O)CN(C)C`, the T/C runs as follows: under setting [6], 94 % of control; under setting [7], 97 % of control.
Take `CN(N/C=N/S(=O)(=O)c1ccccc1)c1ccccc1`: the T/C runs as follows: under setting [8], 94 % of control; under setting [1], 93 % of control.
With `O=c1oc(/C=C/c2ccccc2)nc2cc(Cl)ccc12`, the T/C was 100 % of control under setting [2], 109 % of control under setting [4] and 100 % of control under setting [5].
On to `O=C(O)c1ccc(SSc2ccc(C(=O)O)cn2)nc1`, for which the T/C under setting [9] was 92 % of control and 104 % of control; the T/C under setting [10] is 100 % of control; the T/C (dose: 100.0 mg/kg/injection, schedule: Q04DX003 (ip), vehicle: saline) was 118 % of control; the T/C (dose: 200.0 mg/kg/injection, schedule: Q01DX009 (ip), vehicle: Klucel (hydroxypropylcellulose) (HPC)) was 109 % of control and 119 % of control; the T/C (dose: 200.0 mg/kg/injection, schedule: Q04DX003 (ip), vehicle: Klucel (hydroxypropylcellulose) (HPC)) was 100 % of control; the T/C under setting [11] is 109 % of control. The T/C by setting is: (dose: 400.0 mg/kg/injection, schedule: Q01DX009 (ip), vehicle: Klucel (hydroxypropylcellulose) (HPC)) 107 % of control and 109 % of control; (dose: 400.0 mg/kg/injection, schedule: Q04DX003 (ip), vehicle: Klucel (hydroxypropylcellulose) (HPC)) 100 % of control; (dose: 400.0 mg/kg/injection, schedule: Q04DX003 (ip), vehicle: saline) 113 % of control.
Turning to `CCN(CCNc1ccc(C)c2sc3ccccc3c(=O)c12)CC(C)(C)O`, the T/C is 108 % of control (dose: 35.0 mg/kg/injection, schedule: Q01DX009 (ip), vehicle: saline); 105 % of control (dose: 44.0 mg/kg/injection, schedule: Q04DX003 (ip), vehicle: saline); 120 % of control (dose: 66.0 mg/kg/injection, schedule: Q04DX003 (ip), vehicle: saline); 159 % of control under setting [7]; 160 % of control (dose: 132.0 mg/kg/injection, schedule: Q04DX003 (ip), vehicle: saline); 185 % of control under setting [11]. For the same compound, under “dose: 225.0 mg/kg/injection, schedule: Q01DX009 (ip), vehicle: saline”, the T/C is 90 % of control.
For the compound `COc1cc(NCCCCC(C)N)c2nccc(C)c2c1` (configuration not stated), the T/C under setting [6] was 105 % of control.
In the case of `N#CC(C#N)=Cc1cccc([N+](=O)[O-])c1`, the T/C runs as follows: (dose: 25.0 mg/kg/injection, schedule: Q01DX009 (ip), vehicle: Klucel (hydroxypropylcellulose) (HPC)) 90 % of control and 115 % of control; (dose: 50.0 mg/kg/injection, schedule: Q04DX003 (ip), vehicle: Klucel (hydroxypropylcellulose) (HPC)) 113 % of control; under setting [9], 95 % of control; under setting [10], 113 % of control.
On to `O=[N+]([O-])c1ccc(NS(=O)(=O)c2ccc(Cl)c(Cl)c2Cl)c([N+](=O)[O-])c1`, for which the T/C is 96 % of control under setting [12], 105 % of control under setting [8] and 102 % of control under setting [1].
As to `Cc1ccc(C)c(C(=O)CCC(=O)O)c1`, the T/C is 108 % of control under setting [13]; 110 % of control under setting [12]; 91 % of control under setting [1]; 99 % of control under setting [3]; 91 % of control under setting [4]; 100 % of control under setting [5].
On to `COc1cc2nc(C)n(C)c(=O)c2cc1OC`, for which the T/C is, setting by setting: under setting [8], 101 % of control; under setting [1], 99 % of control; under setting [3], 99 % of control.
As for `O=C(Nc1ccccc1)Oc1cccc(/C=N/Sc2ccccc2)c1`, the T/C by setting is: under setting [13], 107 % of control; under setting [12], 100 % of control; under setting [8], 91 % of control.
For `O=C(Nc1ccccc1F)Nc1cccc2ccccc12`, the T/C (dose: 100.0 mg/kg/injection, schedule: Q01DX001 (ip), vehicle: saline with Tween-80) is 100 % of control; the T/C (dose: 200.0 mg/kg/injection, schedule: Q01DX001 (ip), vehicle: saline with Tween-80) is 100 % of control; the T/C (dose: 400.0 mg/kg/injection, schedule: Q01DX001 (ip), vehicle: saline with Tween-80) is 90 % of control.
